# Test results reported in patent US20230089073A1 (Carmot Therapeutics, Inc., priority 2021, published 2023).
# Target: T1, human GLP-1 receptor (Homo sapiens, UniProt P43220)
# T1 construct: expressed in transfected cells
# Assay: GLP-1R cAMP Assay
# Type: cell-based
# Conditions: cAMP accumulation in CHO cells stably overexpressing the human GLP-1 receptor; 30 min treatment; HitHunter cAMP kit; read-out: EC50
# How it was run: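 Luminescent enzyme-complementation detection of cAMP, read after cell lysis and overnight incubation, with dose-response curve fitting. Stimulation lasted 30 min, using 20-point triplicate dosing on CHO cells (10,000 per well) stably overexpressing human GLP-1R.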
# T1 sequence (P43220 24-463): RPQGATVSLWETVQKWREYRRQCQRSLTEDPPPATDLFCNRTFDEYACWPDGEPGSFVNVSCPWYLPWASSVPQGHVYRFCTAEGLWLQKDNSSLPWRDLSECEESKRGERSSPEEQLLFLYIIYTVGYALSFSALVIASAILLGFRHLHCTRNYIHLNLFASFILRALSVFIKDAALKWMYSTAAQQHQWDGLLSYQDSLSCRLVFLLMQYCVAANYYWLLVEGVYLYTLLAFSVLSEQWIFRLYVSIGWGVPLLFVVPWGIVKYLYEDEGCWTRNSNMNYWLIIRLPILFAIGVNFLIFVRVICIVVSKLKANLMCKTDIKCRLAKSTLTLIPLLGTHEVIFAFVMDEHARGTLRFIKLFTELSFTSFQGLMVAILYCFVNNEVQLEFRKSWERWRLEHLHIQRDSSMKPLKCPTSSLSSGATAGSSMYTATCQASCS
row,EC50,Structure (SMILES)
1,< 50 nM,"CCn1cncc1Cn1c(CN2CC[C@H](Cc3cnc(COc4ccc(Cl)cc4Cl)o3)C[C@@H]2C)nc2ccc(C(=O)O)cc21 [Compound 279, 2-{[(2S,4S)-4-({2-[(2,4-dichlorophenoxy)methyl]-1,3-oxazol-5-yl}methyl)-2-methylpiperidin-1-yl]methyl}-1-[(1-ethyl-1H-imidazol-5-yl)methyl]-1H-1,3-benzodiazole-6-carboxylic acid]"
2,< 50 nM,"O=C(O)c1ccc2nc(CN3CCC(Oc4ccnc(COc5ccc(Cl)cc5Cl)c4)CC3)n(CC3CNC3)c2c1 [Compound 280, 1-[(azetidin-3-yl)methyl]-2-{[4-({2-[(2,4-dichlorophenoxy)methyl]pyridin-4-yl}oxy)piperidin-1-yl]methyl}-1H-1,3-benzodiazole-6-carboxylic acid]"
3,< 50 nM,"C[C@H]1C[C@@H](Oc2ccnc(COc3ccc(Cl)cc3Cl)c2)CCN1Cc1nc2ccc(C(=O)O)cc2n1C[C@@H]1CCO1 [Compound 283, 2-{[(2S,4S)-4-({2-[(2,4-dichlorophenoxy)methyl]pyridin-4-yl}oxy)-2-methylpiperidin-1-yl]methyl}-1-{[(2S)-oxetan-2-yl]methyl}-1H-1,3-benzodiazole-6-carboxylic acid]"
4,> 500 nM,"O=C(O)c1ccc2nc(CN3CCC(Oc4cccc(COc5ncc(Cl)cc5F)c4)CC3)n(C[C@@H]3CCO3)c2c1 [Compound 288, 2-{[4-(3-{[(5-chloro-3-fluoropyridin-2-yl)oxy]methyl}phenoxy)piperidin-1-yl]methyl}-1-{[(2S)-oxetan-2-yl]methyl}-1H-1,3-benzodiazole-6-carboxylic acid]"
5,< 50 nM,"C[C@H]1C[C@H](Oc2cccc(COc3ccc(Cl)cc3F)n2)CCN1Cc1nc2ccc(C(=O)O)cc2n1C[C@@H]1CCO1 [Compound 290, 2-{[(2S,4R)-4-({6-[(4-chloro-2-fluorophenoxy)methyl]pyridin-2-yl}oxy)-2-methylpiperidin-1-yl]methyl}-1-{[(2S)-oxetan-2-yl]methyl}-1H-1,3-benzodiazole-6-carboxylic acid]"
6,< 50 nM,"C[C@H]1C[C@@H](Oc2cccc(COc3ccc(Cl)cc3F)n2)CCN1Cc1nc2ccc(C(=O)O)cc2n1C[C@@H]1CCO1 [Compound 291, 2-{[(2S,4S)-4-({6-[(4-chloro-2-fluorophenoxy)methyl]pyridin-2-yl}oxy)-2-methylpiperidin-1-yl]methyl}-1-{[(2S)-oxetan-2-yl]methyl}-1H-1,3-benzodiazole-6-carboxylic acid]"
7,50 to 500 nM,CCn1cncc1Cn1c(CN2CCC(Oc3cccc(COc4ncc(Cl)cc4F)c3)CC2)nc2ccc(C(=O)O)cc21 [Compound 294]
8,< 50 nM,"O=C(O)c1ccc2nc(CN3CCC(Oc4ccnc(COc5ccc(Cl)cc5F)n4)CC3)n(C[C@@H]3CCO3)c2c1 [Compound 296, 2-{[4-({2-[(4-chloro-2-fluorophenoxy)methyl]pyrimidin-4-yl}oxy)piperidin-1-yl]methyl}-1-{[(2S)-oxetan-2-yl]methyl}-1H-1,3-benzodiazole-6-carboxylic acid]"
9,< 50 nM,O=C(O)c1ccc2nc(CN3CCC(Oc4cccc(COc5ccc(C(F)F)cc5F)c4)CC3)n(C[C@@H]3CCO3)c2c1 [Compound 301]
10,< 50 nM,O=C(O)c1cc(F)c2nc(CN3CCC(Oc4cccc(COc5ccc(C(F)F)cc5F)c4)CC3)n(CC3(CF)CC3)c2c1 [Compound 303]
11,< 50 nM,N#Cc1cc(F)ccc1OCc1nccc(OC2CCN(Cc3nc4ccc(C(=O)O)cc4n3C[C@@H]3CCO3)CC2)n1 [Compound 306]
12,< 50 nM,O=C(O)c1ccc2nc(CN3CCC(Oc4ccnc(COc5ncc(Cl)cc5F)c4)CC3)n(C[C@@H]3CCO3)c2c1 [Compound 308]
13,< 50 nM,N#Cc1ccc(OCc2cccc(OC3CCN(Cc4nc5c(F)cc(C(=O)O)cc5n4C[C@@H]4CCO4)CC3)c2)c(F)c1 [Compound 309]
14,< 50 nM,O=C(O)c1cc(F)c2nc(CN3CCC(Oc4cccc(COc5ccc(C(F)F)cc5F)c4)CC3)n(C[C@@H]3CCO3)c2c1 [Compound 310]
15,< 50 nM,N#Cc1ccc(OCc2nccc(OC3CCN(Cc4nc5c(F)cc(C(=O)O)cc5n4CC4(CF)CC4)CC3)n2)c(F)c1 [Compound 314]
16,< 50 nM,O=C(O)c1cc(F)c2nc(CN3CCC(Oc4ccnc(COc5ccc(Cl)cc5F)n4)CC3)n(C[C@@H]3CCO3)c2c1 [Compound 315]

# Further lines, the molecule ahead of its results:
row,Structure (SMILES),EC50
1,"O=C(O)c1ccc2nc(CN3CCC(Oc4ccccc4COc4ccc(Cl)cc4Cl)CC3)n(C[C@@H]3CCO3)c2c1 [Compound 284, 2-[(4-{2-[(2,4-dichlorophenoxy)methyl]phenoxy}piperidin-1-yl)methyl]-1-{[(2S)-oxetan-2-yl]methyl}-1H-1,3-benzodiazole-6-carboxylic acid]",> 500 nM
2,"O=C(O)c1ccc2nc(CN3CCC(Oc4cccnc4COc4ccc(Cl)cc4Cl)CC3)n(C[C@@H]3CCO3)c2c1 [Compound 286, 2-{[4-({2-[(2,4-dichlorophenoxy)methyl]pyridin-3-yl}oxy)piperidin-1-yl]methyl}-1-{[(2S)-oxetan-2-yl]methyl}-1H-1,3-benzodiazole-6-carboxylic acid]",> 500 nM
3,"CCn1cncc1Cn1c(CN2CCC(Oc3ccnc(COc4ccc(Cl)cc4CO)c3)CC2)nc2ccc(C(=O)O)cc21 [Compound 287, 2-({4-[(2-{[4-chloro-2-(hydroxymethyl)phenoxy]methyl}pyridin-4-yl)oxy]piperidin-1-yl}methyl)-1-[(1-ethyl-1H-imidazol-5-yl)methyl]-1H-1,3-benzodiazole-6-carboxylic acid]",< 50 nM
4,"O=C(O)c1ccc2nc(CN3CCC(Oc4ccnc(COc5ccc(Cl)cc5CO)c4)CC3)n(CC3CCO3)c2c1 (stereo not drawn) [Compound 292, 2-({4-[(2-{[4-chloro-2-(hydroxymethyl)phenoxy]methyl}pyridin-4-yl)oxy]piperidin-1-yl}methyl)-1-[(oxetan-2-yl)methyl]-1H-1,3-benzodiazole-6-carboxylic acid]",< 50 nM
5,"C[C@H]1C[C@H](Oc2ccnc(COc3ccc(Cl)cc3Cl)c2)CCN1Cc1nc2ccc(C(=O)O)cc2n1C[C@@H]1CCO1 [Compound 295, 2-{[(2S,4R)-4-({2-[(2,4-dichlorophenoxy)methyl]pyridin-4-yl}oxy)-2-methylpiperidin-1-yl]methyl}-1-{[(2S)-oxetan-2-yl]methyl}-1H-1,3-benzodiazole-6-carboxylic acid]",< 50 nM
6,O=C(O)c1cc(F)c2nc(CN3CCC(Oc4ccnc(COc5ccc(C(F)F)cc5F)c4)CC3)n(C[C@@H]3CCO3)c2c1 [Compound 302],< 50 nM
7,O=C(O)c1cc(F)c2nc(CN3CCC(Oc4ccnc(COc5ccc(Cl)cc5Cl)n4)CC3)n(C[C@@H]3CCO3)c2c1 [Compound 305],< 50 nM
8,N#Cc1cc(F)ccc1OCc1nccc(OC2CCN(Cc3nc4c(F)cc(C(=O)O)cc4n3C[C@@H]3CCO3)CC2)n1 [Compound 307],< 50 nM
9,O=C(O)c1ccc2nc(CN3CCC(Oc4ccnc(COc5ccc(C(F)F)cc5F)n4)CC3)n(C[C@@H]3CCO3)c2c1 [Compound 311],< 50 nM
10,"O=C(O)c1cc(F)c2nc(CN3CCC(Oc4ccnc(COc5ccc(C(F)F)cc5F)n4)CC3)n(C[C@@H]3CCO3)c2c1 [Compound 312, 2-({4-[(2-{[4-(difluoromethyl)-2-fluorophenoxy]methyl}pyrimidin-4-yl)oxy]piperidin;-1-yl}methyl)-1-{[(2S)-oxetan-2-yl]methyl}-1H-1,3-benzodiazole-6-carboxylic acid]",< 50 nM
11,CCn1cnnc1Cn1c(CN2CCC(Oc3ccnc(COc4ccc(Cl)cc4F)c3)CC2)nc2ccc(C(=O)O)cc21 [Compound 316],< 50 nM
